In US20220313698A1, “MODULATORS OF CYSTIC FIBROSIS TRANSMEMBRANE CONDUCTANCE REGULATOR” (Vertex Pharmaceuticals Incorporated, priority 2019, published 2022):

How the values were obtained:
[1] = biological target: T1, CFTR-mediated chloride transport (Homo sapiens, UniProt P13569); assay: Corrector Assay A - membrane potential dye assay (enteroid cells); conditions: for Corrector Assay A % activity: % of chloride transport of triple combination control (1 μM (14S)-dispiro macrocycle + 3 μM tezacaftor + 300 nM ivacaftor); for EC50: read-out: Corrector Assay A EC50, human intestinal enteroid cells, 18-24 h incubation, acute 10 μM forskolin + 300 nM ivacaftor
[2] = biological target: T1, CFTR-mediated chloride transport; assay: Corrector Assay B - membrane potential dye assay (enteroid cells); conditions: for Corrector Assay B % activity: % of chloride transport of triple combination control (3 μM Compound A + 3 μM tezacaftor + 300 nM ivacaftor); for EC50: read-out: Corrector Assay B EC50, human intestinal enteroid cells, 18-24 h incubation, acute 10 μM forskolin + 300 nM ivacaftor;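 for all read-outs here: methyl oxonol membrane potential fluorescence followed over 15 min after switching to chloride-free buffer with forskolin, 100 µM IBMX and ivacaftor, in presence of CaCC blockers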
Method: Base medium (ADF+++) consisted of Advanced DMEM/Ham's F12, 2 mM Glutamax, 10 mM HEPES, 1 μg/ml penicillin/streptomycin.
Intestinal enteroid maintenance medium (IEMM) consisted of ADF+++, 1×B27 supplement, 1×N2 supplement, 1.25 mM N-acetyl cysteine, 10 mM Nicotinamide, 50 ng/mL hEGF, 10 nM Gastrin, 1 μg/mL hR-spondin-1, 100 ng/mL hNoggin, TGF-b type 1 inhibitor A-83-01, 100 μg/mL Primocin, 10 μM P38 MAPK inhibitor SB202190.
Bath 1 Buffer consisted of 1 mM MgCl2, 160 mM NaCl, 4.5 mM KCl, 10 mM HEPES, 10 mM Glucose, 2 mM CaCl2).
Chloride Free Buffer consisted of 1 mM Magnesium Gluconate, 2 mM Calcium Gluconate, 4.5 mM Potassium Gluconate, 160 mM Sodium Gluconate, 10 mM HEPES, 10 mM Glucose.
Bath 1 Dye Solution consisted of Bath 1 Buffer, 0.04% Pluronic F127, 20 μM Methyl Oxonol, 30 μM CaCCinh-A01, 30 μM Chicago Sky Blue.
Chloride Free Dye Solution consisted of Chloride Free Buffer, 0.04% Pluronic F127, 20 μM Methyl Oxonol, 30 μM CaCCinh-A01, 30 μM Chicago Sky Blue.
Chloride Free Dye Stimulation Solution consisted of Chloride Free Dye Solution, 10 μM forskolin, 100 μM IBMX, and 300 nM Ivacaftor.
Cells were recovered in cell recovery solution, collected by centrifugation at 650 rpm for 5 min at 4° C., resuspended in TryPLE and incubated for 5 min at 37° C. Cells were then collected by centrifugation at 650 rpm for 5 min at 4° C. and resuspended in IEMM containing 10 μM ROCK inhibitor (RI). The cell suspension was passed through a 40 μm cell strainer and resuspended at 1×10^6 cells/mL in IEMM containing 10 μM RI. Cells were seeded at 5000 cells/well into multi-well plates and incubated for overnight at 37° C., 95% humidity and 5% CO2 prior to assay.
Briefly, cells were washed 5 times in Bath 1 Buffer. Bath 1 Dye Solution was added and the cells were incubated for 25 min at room temperature. Following dye incubation, cells were washed 3 times in Chloride Free Dye Solution. Chloride transport was initiated by addition of Chloride Free Dye Stimulation Solution and the fluorescence signal was read for 15 min. The CFTR-mediated chloride transport for each condition was determined from the AUC of the fluorescence response to acute forskolin and 300 nM N-[2,4-bis(1,1-dimethylethyl)-5-hydroxyphenyl]-1,4-dihydro-4-oxoquinoline-3-carboxamide stimulation. Chloride transport was then expressed as a percentage of the chloride transport following treatment with 3 μM Compound A, 3 μM (R)-1-(2,2-difluorobenzo[d][1,3]dioxol-5-yl)-N-(1-(2,3-dihydroxypropyl)-6-fluoro-2-(1-hydroxy-2-methylpropan-2-yl)-1H-indol-5-yl)cyclopropanecarboxamide and 300 nM acute N-[2,4-bis(1,1-dimethylethyl)-5-hydroxyphenyl]-1,4-dihydro-4-oxoquinoline-3-carboxamide triple combination control (% Activity).

Row | Structure (SMILES) | Corrector Assay A % activity [1] | EC50 [1] [nM] | Corrector Assay B % activity [2] | EC50 [2] [nM]
1 | CC1(C)CC2CC(c3ccccc3)CNc3cccc(n3)S(=O)(=O)NC(=O)c3ccc(-n4ccc(OCCC5(C(F)(F)F)CC5)n4)nc3N1C2 (single isomer, unassigned) [Compound 389, 12,12-dimethyl-16-phenyl-8-(3-{2-[1-(trifluoromethyl)cyclopropyl]ethoxy}-1H-pyrazol-1-yl)-2λ^6-thia-3,9,11,18,23-pentaazatetracyclo[17.3.1.111,14.05,10]tetracosa-1(22),5,7,9,19(23),20-hexaene-2,2,4-trione] | +++ (+++ is >60%) | < 1000 | +++ (+++ is >60%) | < 1000
2 | CCCC1(C)CC2CCCNc3cccc(n3)S(=O)(=O)NC(=O)c3ccc(-n4ccc(OCCC5(C(F)(F)F)CC5)n4)nc3N1C2 (single isomer, unassigned) [Compound 368, 12-methyl-12-propyl-8-(3-{2-[1-(trifluoromethyl)cyclopropyl]ethoxy}-1H-pyrazol-1-yl)-2λ^6-thia-3,9,11,18,23-pentaazatetracyclo[17.3.1.111,14.05,10]tetracosa-1(22),5,7,9,19(23),20-hexaene-2,2,4-trione] | – | – | +++ (+++ is >60%) | < 1000
3 | CC1(C)C[C@@H]2CCC(c3cncnc3)Nc3cccc(n3)S(=O)(=O)NC(=O)c3ccc(-n4ccc(OCCC5(C(F)(F)F)CC5)n4)nc3N1C2 (single isomer, unassigned) [Compound 375] | – | – | +++ (+++ is >60%) | < 1000
4 | CN(C)C(=O)CN1CCC[C@@H]2CN(c3nc(-n4ccc(OCCC5(C(F)(F)F)CC5)n4)ccc3C(=O)NS(=O)(=O)c3cccc1n3)C(C)(C)C2 [Compound 376] | – | – | ++ (++ is 30-60%) | < 1000
5 | CC1(C)C[C@@H]2CCCN(CCCCCC#N)c3cccc(n3)S(=O)(=O)NC(=O)c3ccc(-n4ccc(OCCC5(C(F)(F)F)CC5)n4)nc3N1C2 [Compound 369] | – | – | ++ (++ is 30-60%) | < 1000
6 | CC1(C)CC2CN1c1nc(-n3ccc(OCCC4(C(F)(F)F)CC4)n3)ccc1C(=O)NS(=O)(=O)c1cccc(n1)NCCC2c1ccccc1 (single isomer, unassigned) [Compound 386, 12,12-Dimethyl-15-phenyl-8-(3-{2-[1-(trifluoromethyl)cyclopropyl]ethoxy}-1H-pyrazol-1-yl)-2λ^6-thia-3,9,11,18,23-pentaazatetracyclo[17.3.1.111,14.05,10]tetracosa-1(22),5,7,9,19(23),20-hexaene-2,2,4-trione] | – | – | ++ (++ is 30-60%) | < 1000
7 | CC(C)(C)c1ccc2c(n1)N1C[C@@H](CCC(c3cncnc3)Nc3cccc(n3)S(=O)(=O)NC2=O)CC1(C)C (single isomer, unassigned) [Compound 298] | – | – | +++ (+++ is >60%) | < 1000
8 | CCCC1(C)CC2CCCNc3cccc(n3)S(=O)(=O)NC(=O)c3ccc(-n4ccc(OCCC5(C(F)(F)F)CC5)n4)nc3N1C2 (single isomer, unassigned) [Compound 366, 12-methyl-12-propyl-8-(3-{2-[1-(trifluoromethyl)cyclopropyl]ethoxy}-1H-pyrazol-1-yl)-2λ^6-thia-3,9,11,18,23-pentaazatetracyclo[17.3.1.111,14.05,10]tetracosa-1(22),5,7,9,19(23),20-hexaene-2,2,4-trione] | – | – | + (+ is <30%) | –
9 | CC1(C)C[C@@H]2CCCN(C[C@@H](O)CO)c3cccc(n3)S(=O)(=O)NC(=O)c3ccc(-n4ccc(OCCC5(C(F)(F)F)CC5)n4)nc3N1C2 (single isomer, unassigned) [Compound 379] | – | – | +++ (+++ is >60%) | < 1000
10 | CC1(C)C[C@@H]2CCC(c3cncnc3)Nc3cccc(n3)S(=O)(=O)NC(=O)c3ccc(-n4ccc(OCCC5(C(F)(F)F)CC5)n4)nc3N1C2 (single isomer, unassigned) [Compound 374] | – | – | +++ (+++ is >60%) | < 1000
11 | CC1(C)CC2CC(c3ccccc3)CNc3cccc(n3)S(=O)(=O)NC(=O)c3ccc(-n4ccc(OCCC5(C(F)(F)F)CC5)n4)nc3N1C2 (single isomer, unassigned) [Compound 392, 12,12-dimethyl-16-phenyl-8-(3-{2-[1-(trifluoromethyl)cyclopropyl]ethoxy}-1H-pyrazol-1-yl)-2λ^6-thia-3,9,11,18,23-pentaazatetracyclo[17.3.1.111,14.05,10]tetracosa-1(22),5,7,9,19(23),20-hexaene-2,2,4-trione] | – | – | ++ (++ is 30-60%) | < 1000
12 | CC1(C)C[C@@H]2CCC(c3ccccc3)Nc3cccc(n3)S(=O)(=O)NC(=O)c3cccnc3N1C2 (single isomer, unassigned) [Compound 288] | – | – | +++ (+++ is >60%) | 1000 to 3000
13 | CC1(C)C[C@@H]2CCC(c3ccc(C(=O)O)cc3)Nc3cccc(n3)S(=O)(=O)NC(=O)c3ccc(-n4ccc(OCCC5(C(F)(F)F)CC5)n4)nc3N1C2 (single isomer, unassigned) [Compound 370] | – | – | +++ (+++ is >60%) | 1000 to 3000
14 | CC1(C)CC2CC(c3ccccc3)CNc3cccc(n3)S(=O)(=O)NC(=O)c3ccc(-n4ccc(OCCC5(C(F)(F)F)CC5)n4)nc3N1C2 (single isomer, unassigned) [Compound 390, 12,12-dimethyl-16-phenyl-8-(3-{2-[1-(trifluoromethyl)cyclopropyl]ethoxy}-1H-pyrazol-1-yl)-2λ^6-thia-3,9,11,18,23-pentaazatetracyclo[17.3.1.111,14.05,10]tetracosa-1(22),5,7,9,19(23),20-hexaene-2,2,4-trione] | – | – | +++ (+++ is >60%) | < 1000
15 | CC1(C)C[C@@H]2CCCN(CC3COC3)c3cccc(n3)S(=O)(=O)NC(=O)c3ccc(-n4ccc(OCCC5(C(F)(F)F)CC5)n4)nc3N1C2 [Compound 359] | – | – | +++ (+++ is >60%) | < 1000

Next, values leading:

Row | Corrector Assay A % activity [1] | EC50 [1] [nM] | Corrector Assay B % activity [2] | EC50 [2] [nM] | Structure (SMILES)
16 | +++ (+++ is >60%) | < 1000 | +++ (+++ is >60%) | < 1000 | CC1(C)C[C@@H]2CCC(c3ccccn3)Nc3cccc(n3)S(=O)(=O)NC(=O)c3ccc(-n4ccc(OCCC5(C(F)(F)F)CC5)n4)nc3N1C2 (single isomer, unassigned) [Compound 361]
17 | +++ (+++ is >60%) | < 1000 | ++ (++ is 30-60%) | < 1000 | CCCC1(C)CC2CCCNc3cccc(n3)S(=O)(=O)NC(=O)c3ccc(-n4ccc(OCCC5(C(F)(F)F)CC5)n4)nc3N1C2 (single isomer, unassigned) [Compound 367, 12-methyl-12-propyl-8-(3-{2-[1-(trifluoromethyl)cyclopropyl]ethoxy}-1H-pyrazol-1-yl)-2λ^6-thia-3,9,11,18,23-pentaazatetracyclo[17.3.1.111,14.05,10]tetracosa-1(22),5,7,9,19(23),20-hexaene-2,2,4-trione]
18 | +++ (+++ is >60%) | < 1000 | +++ (+++ is >60%) | < 1000 | CC(C)(C)c1ccc2c(n1)N1C[C@@H](CCC(c3ccccn3)Nc3cccc(n3)S(=O)(=O)NC2=O)CC1(C)C (single isomer, unassigned) [Compound 292]
19 | – | – | +++ (+++ is >60%) | < 1000 | CC(C)C1CC[C@@H]2CN(c3nc(-n4ccc(OCCC5(C(F)(F)F)CC5)n4)ccc3C(=O)NS(=O)(=O)c3cccc(n3)N1)C(C)(C)C2 (single isomer, unassigned) [Compound 358]
20 | – | – | +++ (+++ is >60%) | < 1000 | CC1(C)C[C@@H]2CCCN(CCC#N)c3cccc(n3)S(=O)(=O)NC(=O)c3ccc(-n4ccc(OCCC5(C(F)(F)F)CC5)n4)nc3N1C2 [Compound 377]
21 | – | – | ++ (++ is 30-60%) | 1000 to 3000 | CC(C)(C)c1ccc2c(n1)N1C[C@@H](CCC(c3ccc(C(=O)O)cc3)Nc3cccc(n3)S(=O)(=O)NC2=O)CC1(C)C (single isomer, unassigned) [Compound 290]
22 | – | – | +++ (+++ is >60%) | < 1000 | CC1(C)C[C@@H]2CCCN(CCC(N)=O)c3cccc(n3)S(=O)(=O)NC(=O)c3ccc(-n4ccc(OCCC5(C(F)(F)F)CC5)n4)nc3N1C2 [Compound 378, 3-[(14S)-12,12-Dimethyl-2,2,4-trioxo-8-(3-{2-[1-(trifluoromethyl)cyclopropyl]ethoxy}-1H-pyrazol-1-yl)-2λ^6-thia-3,9,11,18,23-pentaazatetracyclo[17.3.1.111,14.05,10]tetracosa-1(23),5(10),6,8,19,21-hexaen-18-yl]propanamide]
23 | – | – | ++ (++ is 30-60%) | 1000 to 3000 | CC(C)(C)c1ccc2c(n1)N1C[C@@H](CCC(c3ccc(C(=O)O)cc3)Nc3cccc(n3)S(=O)(=O)NC2=O)CC1(C)C (single isomer, unassigned) [Compound 291]
24 | – | – | +++ (+++ is >60%) | < 1000 | CC1(C)C[C@@H]2CCCN(C[C@H](O)CO)c3cccc(n3)S(=O)(=O)NC(=O)c3ccc(-n4ccc(OCCC5(C(F)(F)F)CC5)n4)nc3N1C2 (single isomer, unassigned) [Compound 381]
25 | – | – | +++ (+++ is >60%) | < 1000 | CC1(C)C[C@@H]2CCC(c3ccccc3)Nc3cccc(n3)S(=O)(=O)NC(=O)c3cccnc3N1C2 (single isomer, unassigned) [Compound 289]
